{
  "source": "paper PMC3510254",
  "about": "(PLoS Pathogens, 2012)",
  "key": {"immunoproteasome (20S) [1]": {"test_system": "immunoproteasome (20S)", "test": "purified immunoproteasome, 4 µg in the degradation experiment, in digestion buffer", "settings": "human, up to 6 hours"}, "[2]": {"test_system": "constitutive proteasome (20S)", "test": "purified constitutive proteasome, 4 µg in the degradation experiment, in digestion buffer", "settings": "human, up to 6 hours"}, "immunoproteasome": {"target": "T1, immunoproteasome (Homo sapiens, UniProt P28062+P28065+P40306)", "T1 construct": "Constitutive and immuno-20S proteasomes were purified from LCL721.174 and LCL721 human EBV-transformed B cell lines; endogenous in cells; host or cells: LCL721 human EBV-transformed B cell line", "test": "In vitro proteasomal peptide digest with mass spectrometry", "assay_type": "in vitro ADME", "settings": "25-mer precursor, 1, 2, 4 and 6 hours; 2 µg or 4 µg proteasome; extracted ion chromatograms; Fig 6; triplicate"}, "proteasome": {"test_system": "proteasome", "test": "Proteasome inhibition of endogenous antigen processing in vHCV 827-infected B-LCLs, IFN-γ read-out of CTL lines", "assay_type": "cell-based, human"}, "[3]": {"test_system": "constitutive proteasome (20S)", "test": "purified constitutive proteasome in digestion buffer (20 mM HEPES-NaOH pH 7.6, 2 mM MgAc2, 0.5 mM DTT)", "settings": "human, up to 6 hours"}, "immunoproteasome (20S) [4]": {"test_system": "immunoproteasome (20S)", "test": "purified immunoproteasome in digestion buffer (20 mM HEPES-NaOH pH 7.6, 2 mM MgAc2, 0.5 mM DTT)", "settings": "human, up to 6 hours"}},
  "note": "Where no end group is shown, it is not given here.",
  "data": [
    {"compound": "VRVCEKMARMILMTHFPLAVMGSSY", "values": [
      {"measurement": "fragment found", "setting": "immunoproteasome (20S) [1]", "result": "ARMILMTHF"},
      {"measurement": "fragment found", "setting": "[2]", "result": "ARMILMTHF"}
    ]},
    {"compound": "VRVCEKMARMILMTHFPLAVMGSSY [B27-in-A2]", "values": [
      {"measurement": "precursor degradation rate relative to A2-in-A2 peptide, immunoproteasomal digestion", "setting": "immunoproteasome", "result": "degraded slightly more slowly than the A2-in-A2 peptide"}
    ]},
    {"compound": "CC[C@H](C)[C@H](NC(=O)[C@H]([C@@H](C)CC)N(C)C(C)=O)C(=O)N[C@H](C(=O)N[C@@H](CC(C)C)C(=O)[C@@]1(C)CO1)[C@@H](C)O", "note": "[epoxomicin]", "values": [
      {"measurement": "effect on induction of epitope-specific IFN-γ production and number of responding CD8+ T cells", "setting": "proteasome", "result": "delay the induction of epitope-specific IFN-γ production and considerably decrease the number of responding CD8+ T cells"}
    ]},
    {"compound": "CC(=O)N[C@@H](CSC(=O)[C@]1([C@@H](O)C(C)C)NC(=O)[C@H](C)[C@@H]1O)C(=O)O", "note": "[lactacystin]", "values": [
      {"measurement": "reductions in the number of responding CD8+ T cells", "setting": "proteasome", "result": "30–70%"}
    ]},
    {"compound": "AQTFLATCINGVCWTVYHGAGTRT", "values": [
      {"measurement": "fragment found", "setting": "[3]", "result": "CINGVCWTV"},
      {"measurement": "fragment found", "setting": "immunoproteasome (20S) [4]", "result": "CINGVCWTV"}
    ]}
  ]
}
